Measurements published in PubChem BioAssay (NCI).
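Each compound was tested at five concentrations against cells in 96-well plates for 48 hours. GI50: concentration for 50% inhibition of growth. Definition used: TGI = concentration required for complete inhibition of growth.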

Columns and labels:
Assay in all cases: NCI tumour cell line growth inhibition, 48 h
COLO 205 colon = system: COLO 205 colon
HL-60(TB) leukemia = system: HL-60(TB) leukemia
OVCAR-8 ovarian = system: OVCAR-8 ovarian
RPMI-8226 leukemia = system: RPMI-8226 leukemia
SF-539 CNS = system: SF-539 CNS
SK-MEL-2 melanoma = system: SK-MEL-2 melanoma
U251 CNS = system: U251 CNS
EKVX NSCLC = system: EKVX NSCLC
HCT-15 colon = system: HCT-15 colon
SNB-75 CNS = system: SNB-75 CNS

SMILES	GI50 (COLO 205 colon)	TGI (COLO 205 colon)	GI50 (HL-60(TB) leukemia)	TGI (HL-60(TB) leukemia)	GI50 (OVCAR-8 ovarian)	TGI (OVCAR-8 ovarian)	GI50 (RPMI-8226 leukemia)	TGI (RPMI-8226 leukemia)	GI50 (SF-539 CNS)	TGI (SF-539 CNS)	GI50 (SK-MEL-2 melanoma)	TGI (SK-MEL-2 melanoma)	GI50 (U251 CNS)	TGI (U251 CNS)	GI50 (EKVX NSCLC)	TGI (EKVX NSCLC)	GI50 (HCT-15 colon)	TGI (HCT-15 colon)	GI50 (SNB-75 CNS)	TGI (SNB-75 CNS)
CC1(C)C=CC[C@]2(C)[C@H]3CC[C@@H]4[C@H]5[C@H](C(=O)/C=C/c6cccnc6)CC[C@]5(CO)CC[C@@]4(C)[C@]3(C)CC[C@@H]12	1.69 µM	3.69 µM	0.304 µM	1.89 µM	0.666 µM	3.22 µM	0.843 µM	5.35 µM	1.5 µM	2.87 µM	1.28 µM	2.76 µM	1.24 µM	2.65 µM	–	–	–	–	–	–
COc1cc2nc(-c3ccc(C(F)(F)F)cc3)cc(OCCCN3CCOCC3)c2cc1OC	0.528 µM	10.3 µM	9.58 µM	47.3 µM	1.95 µM	28.8 µM	–	–	3.18 µM	16.4 µM	3.32 µM	13.1 µM	1.4 µM	14.3 µM	1.61 µM	19.6 µM	0.52 µM	5.57 µM	2.46 µM	9.51 µM
CC(=O)O/N=C/c1ncccc1CO	–	> 100 µM	–	> 100 µM	–	> 100 µM	–	–	–	> 100 µM	–	> 100 µM	–	> 100 µM	–	> 100 µM	–	> 100 µM	–	> 100 µM
CC(=O)NC(CCCCNC(=O)OCc1ccccc1)C(=O)NCc1ccccc1 (centres undefined)	–	> 100 µM	–	–	–	> 100 µM	–	> 100 µM	–	> 100 µM	–	> 100 µM	–	> 100 µM	–	> 100 µM	–	> 100 µM	–	> 100 µM
CC1=CSC2=NC(c3ccc(Cl)c(Cl)c3)=CC(c3ccc(Cl)cc3)N12 (centres undefined)	> 100 µM	> 100 µM	> 100 µM	> 100 µM	> 100 µM	> 100 µM	> 100 µM	> 100 µM	> 100 µM	> 100 µM	> 100 µM	> 100 µM	> 100 µM	> 100 µM	–	–	> 100 µM	> 100 µM	> 95.3 µM	> 100 µM
COc1cc([C@H](C)c2ccc3ccccc3c2)cc(OC)c1OC	0.306 µM	0.865 µM	0.184 µM	0.745 µM	0.499 µM	65.1 µM	0.325 µM	10.9 µM	0.297 µM	> 100 µM	0.527 µM	65.4 µM	0.333 µM	21.1 µM	0.941 µM	> 100 µM	0.311 µM	> 100 µM	–	–
Cc1cc(/C=C2\SC(=Nc3ccccc3)N(C3CCCC3)C2=O)c(C)n1-c1ccc(Cl)cc1	> 100 µM	> 100 µM	> 100 µM	> 100 µM	> 100 µM	> 100 µM	> 100 µM	> 100 µM	> 100 µM	> 100 µM	> 100 µM	> 100 µM	> 100 µM	> 100 µM	–	–	> 100 µM	> 100 µM	> 100 µM	> 100 µM
